Results as given in the NIST ThermoML archive (doi:10.1016/j.fluid.2007.01.033).

Tests used:
[1] = refractive index (Na D-line) (dimensionless); settings: 298.15 K; 101.33 kPa; Liquid; Standard Abbe refractometry
[2] = xn = mol fraction of the nth substance listed; settings: 313.15 K, Liquid

O=C=O [carbon dioxide]
313.15 K, Fluid (supercritical or subcritical phases)
Settings	mass density [kg/m3]
1000 kPa	17.9
2000 kPa	37.1
3000 kPa	58.7
4000 kPa	83.5
5000 kPa	112.7
6000 kPa	148.8
7000 kPa	197.3
8000 kPa	276.7
9000 kPa	483.4
10000 kPa	627.4

COC(C)=O [methyl ethanoate]
Settings	Normal boiling temperature [°C]	refractive index
Liquid	56.89	–
[1]	–	1.3594

Settings	mass density [kg/m3]
298.15 K, 101.33 kPa, Liquid	927.1

COC(C)=O [methyl ethanoate] + O=C=O
mass density [kg/m3], [2]
Settings	1000 kPa	2000 kPa	3000 kPa	4000 kPa	5000 kPa	6000 kPa	7000 kPa	8000 kPa	9000 kPa	10000 kPa
x2 = 0	907.9	908.9	909.7	910.9	912	913.1	914.1	915.1	916.1	917.1
x2 = 0.1	910	911.1	912.4	913.5	914.7	915.9	917	918.1	919.2	920.3
x2 = 0.2	–	913.9	915.2	916.6	917.9	919.1	920.4	921.7	922.9	924.1
x2 = 0.3	–	–	–	917.1	918.6	920.1	921.5	922.9	924.3	925.7
x2 = 0.4	–	–	–	917.4	919.2	920.9	922.7	924.3	925.9	927.5
x2 = 0.5	–	–	–	–	915.4	917.5	919.6	921.6	923.7	925.6
x2 = 0.6	–	–	–	–	–	909	912.8	915.5	918.1	920.7
x2 = 0.7	–	–	–	–	–	891.8	895.9	899.7	903.5	907
x2 = 0.8	–	–	–	–	–	–	861.5	868.2	873.8	879.5
x2 = 0.9	–	–	–	–	–	–	–	793.5	808	820.3
x2 = 0.95	–	–	–	–	–	–	–	–	734.6	759.7
